Laboratory results published in patent US7825263B2, “Nitrooxyderivatives of carvedilol and other beta blockers as antihypertensive” (Nicox S.A., priority 2003, dated 2010).

Test system: PC12 cells
Assay: Measurements of cGMP in rat PC12 cell line (cGMP accumulation, enzyme immunoassay)
Assay type: cell-based
Details: for EC50: PC-12, 0.75 h
Procedure: Measurements of cGMP in Rat PC12 Cell Line
cGMP contributes to the function and interaction of several vascular cell types and its dysfunction is involved in major cardiovascular diseases such as hypertension, diabetic complications, atherosclerosis, and tissue infarction. Therefore the extent of cGMP formation elicited by the compounds of the inventions was evaluated in the rat pheochromocytoma (PC12) cell line.
Cells were maintained at 37° C. in DMEM medium enriched with 10% horse serum and 5% foetal bovine serum under 5% CO2 atmosphere. At the time of experiments the cells were washed once with Hank's Balanced Salt Solution (HBSS) supplemented with 0.05% ascorbic acid and preincubated in the same buffer for 10 min in a floating water bath. After the preincubation step, cells were exposed for additional 45 min to either control conditions or increasing concentrations of test compounds ranging from 0.1 to 25 μM, in the presence of the phosphodiesterase inhibitor, IBMX (100 μM) and the NO-independent activator of soluble guanylyl cyclase, YC-1 (20 μM). The reaction was terminated by the removal of the incubating buffer and consecutive addition of 100 μl of absolute ethanol. The organic extracts were then evaporated to dryness and the residues dissolved in aqueous buffer for quantitative determination of intracellular cGMP levels using the cGMP enzyme immunoassay kit.
The obtained results reported in Table 1 are expressed as EC50 (μM) and efficacy Emax (% of vehicle). As shown in the table the nitroderivatives of carvedilol induced a consistent increase of intracellular cGMP formation in PC12 cell line. Conversely, this effect was not induced by the parent compound.

[1] = 45 min exposure, 0.1 to 25 μM test compound, in presence of IBMX (100 μM) and YC-1 (20 μM)

SMILES	EC50, cGMP accumulation in PC12 cells [1]	EC50 [1] [nM]	Emax (% of vehicle), cGMP accumulation in PC12 cells [1]	increase of intracellular cGMP formation in PC12 cell line (in words) (summary statement on Table 1)
COc1ccccc1OCCNCC(O)COc1cccc2[nH]c3ccccc3c12 (centres unmarked) [Carvedilol]	Not effective	–	Not effective	not induced
COc1ccccc1OCCNCC(COc1cccc2[nH]c3ccccc3c12)OC(=O)c1ccc(CO[N+](=O)[O-])cc1 (centres unmarked) [Compound of example 1, 4-(Nitrooxymethyl)benzoic acid 1-(9H-carbazol-4-yloxy)-3-[[2-(2-methoxyphenoxy)ethyl]amino]-2-propanoate]	–	2300	480 % of vehicle	–

Further lines, with some results ahead:

EC50, cGMP accumulation in PC12 cells [1]	EC50 [1] [nM]	SMILES	Emax (% of vehicle), cGMP accumulation in PC12 cells [1]	increase of intracellular cGMP formation in PC12 cell line (in words) (summary statement on Table 1)
–	1800	COc1ccccc1OCCN(CC(O)COc1cccc2[nH]c3ccccc3c12)C(=O)c1ccc(CO[N+](=O)[O-])cc1 (centres unmarked) [Compound of example 3, 1-(9H-carbazol-4-yloxy)-3-[[2-(2-methoxyphenoxy)ethyl][(4-nitrooxymethyl)benzoyl]amino]-2-propanol]	565 % of vehicle	–
–	1700	COc1ccccc1OCCN(CC(O)COc1cccc2[nH]c3ccccc3c12)C(=O)CCO[N+](=O)[O-] (centres unmarked) [Compound of example 4]	395 % of vehicle	–
–	600	COc1ccccc1OCCN(CC(O)COc1cccc2[nH]c3ccccc3c12)C(=O)CCCCCO[N+](=O)[O-] (centres unmarked) [Compound of example 5]	322 % of vehicle	–
